According to ChEMBL document CHEMBL3885861, “Open TG-GATES”:

Species on record: Rattus norvegicus
Assay: Open TG-GATES - Regimen: Single
Type: toxicity, organism-based, Sprague-Dawley
Set-up: regimen Single, gender Male, age 6 weeks
Details: in vivo, po, 10 mg/kg, route gavage, dose level Low; for APTT / Bas / Eos / Fbg / Hb / Ht / Lym / MCH / MCHC / MCV / Mono / Neu / PT / Plat / RBC / Ret / WBC: tissue Blood; for KIDNEY_L / KIDNEY_R / KIDNEY_TOTAL: tissue Kidney; for LIVER: tissue Liver; for A/G / ALP / ALT / AST / BUN / CRE / Ca / Cl / DBIL / GLC / IP / K / LDH / Na / PL / RALB / TBIL / TC / TG / TP / gamma-GTP: tissue Plasma

Compound CCN(CC)N=O [N-NITROSODIETHYLAMINE] has a TERMINAL_BW (3 h) of 222.2 g, an APTT (3 h) of 18.5 s and a Bas (3 h) of 0.4%. For the same compound, the Eos (3 h) was 0.8%, the Fbg (3 h) was 221.2 mg/dL and the Hb (3 h) was 13.4 g/dL. It also gave a Ht (3 h) of 39.5%, a Lym (3 h) of 74.8% and an MCH (3 h) of 21.3 pg. For the same compound, the MCHC (3 h) was 33.9%, the MCV (3 h) was 62.8 fL and the Mono (3 h) was 2.2%. The Neu (3 h) was 21.2%, the PT (3 h) was 12.3 s and the Plat (3 h) was 120.1 x10_4/uL. The RBC (3 h) was 629.8 x10_4/ul, the Ret (3 h) was 7.4% and the WBC (3 h) was 85.8 x10_2/uL. The KIDNEY_L (3 h) was 1 g, the KIDNEY_R (3 h) was 1 g and the KIDNEY_TOTAL (3 h) was 2 g. The LIVER (3 h) was 9.3 g, the A/G (3 h) was 1.7 and the ALP (3 h) was 906.2 IU/L. It also gave an ALT (3 h) of 45 IU/L, an AST (3 h) of 74.4 IU/L and a BUN (3 h) of 10.8 mg/dL. The CRE (3 h) was 0.4 mg/dL, the Ca (3 h) was 10.2 mg/dL and the Cl (3 h) was 103 meq/L. For the same compound, the DBIL (3 h) was 0.062 mg/dL, the GLC (3 h) was 190.2 mg/dL and the IP (3 h) was 8.8 mg/dL. It also gave a K (3 h) of 3.6 meq/L, an LDH (3 h) of 194 IU/L and a Na (3 h) of 141.2 meq/L. For the same compound, the PL (3 h) was 123.4 mg/dL, the RALB (3 h) was 3.4 g/dL and the TBIL (3 h) was 0.1 mg/dL. For the same compound, the TC (3 h) was 77.4 mg/dL, the TG (3 h) was 34 mg/dL and the TP (3 h) was 5.4 g/dL. For the same compound, the gamma-GTP (3 h) was 1 IU/L, the TERMINAL_BW (6 h) was 226.2 g and the APTT (6 h) was 18.6 s. The Bas (6 h) was 0.6%, the Eos (6 h) was 1% and the Fbg (6 h) was 235 mg/dL. It also gave a Hb (6 h) of 13.3 g/dL, a Ht (6 h) of 39.1% and a Lym (6 h) of 78%. The MCH (6 h) was 20.7 pg, the MCHC (6 h) was 34% and the MCV (6 h) was 60.9 fL. The Mono (6 h) was 2.4%, the Neu (6 h) was 17.4% and the PT (6 h) was 12.1 s. For the same compound, the Plat (6 h) was 127.1 x10_4/uL, the RBC (6 h) was 642.4 x10_4/ul and the Ret (6 h) was 6.1%. It also gave a WBC (6 h) of 90.2 x10_2/uL, a KIDNEY_L (6 h) of 1 g and a KIDNEY_R (6 h) of 1 g. It also gave a KIDNEY_TOTAL (6 h) of 2 g, an LIVER (6 h) of 10.3 g and an A/G (6 h) of 1.5. It also gave an ALP (6 h) of 923.4 IU/L, an ALT (6 h) of 39 IU/L and an AST (6 h) of 69 IU/L. For the same compound, the BUN (6 h) was 14.2 mg/dL, the CRE (6 h) was 0.4 mg/dL and the Ca (6 h) was 10.4 mg/dL. It also gave a Cl (6 h) of 103.2 meq/L, a DBIL (6 h) of 0.078 mg/dL and a GLC (6 h) of 199.2 mg/dL. The IP (6 h) was 7.6 mg/dL, the K (6 h) was 3.7 meq/L and the LDH (6 h) was 220.8 IU/L. For the same compound, the Na (6 h) was 140.6 meq/L, the PL (6 h) was 144 mg/dL and the RALB (6 h) was 3.3 g/dL. The TBIL (6 h) was 0.1 mg/dL, the TC (6 h) was 81 mg/dL and the TG (6 h) was 62.6 mg/dL. The TP (6 h) was 5.6 g/dL, the gamma-GTP (6 h) was 1.2 IU/L and the TERMINAL_BW (9 h) was 226.3 g. The APTT (9 h) was 18.1 s, the Bas (9 h) was 0.8% and the Eos (9 h) was 1%. The Fbg (9 h) was 222.4 mg/dL, the Hb (9 h) was 14 g/dL and the Ht (9 h) was 40.2%. The Lym (9 h) was 80.6%, the MCH (9 h) was 21.7 pg and the MCHC (9 h) was 34.8%. The MCV (9 h) was 62.1 fL, the Mono (9 h) was 2.4% and the Neu (9 h) was 14.4%. The PT (9 h) was 12.2 s, the Plat (9 h) was 123.8 x10_4/uL and the RBC (9 h) was 647 x10_4/ul. The Ret (9 h) was 6.7%, the WBC (9 h) was 100.3 x10_2/uL and the KIDNEY_L (9 h) was 0.9 g. For the same compound, the KIDNEY_R (9 h) was 1 g, the KIDNEY_TOTAL (9 h) was 1.9 g and the LIVER (9 h) was 10.3 g. For the same compound, the A/G (9 h) was 1.6, the ALP (9 h) was 1025.2 IU/L and the ALT (9 h) was 38.6 IU/L. For the same compound, the AST (9 h) was 67.2 IU/L, the BUN (9 h) was 14.4 mg/dL and the CRE (9 h) was 0.4 mg/dL. It also gave a Ca (9 h) of 10.7 mg/dL, a Cl (9 h) of 103.2 meq/L and a DBIL (9 h) of 0.09 mg/dL. It also gave a GLC (9 h) of 188.4 mg/dL, an IP (9 h) of 8.3 mg/dL and a K (9 h) of 3.9 meq/L. The LDH (9 h) was 169.8 IU/L, the Na (9 h) was 141.4 meq/L and the PL (9 h) was 141.4 mg/dL. It also gave an RALB (9 h) of 3.5 g/dL, a TBIL (9 h) of 0.1 mg/dL and a TC (9 h) of 76 mg/dL. The TG (9 h) was 90.4 mg/dL, the TP (9 h) was 5.7 g/dL and the gamma-GTP (9 h) was 1.2 IU/L. It also gave a TERMINAL_BW (24 h) of 229.3 g, an APTT (24 h) of 19.1 s and a Bas (24 h) of 0.4%. It also gave an Eos (24 h) of 1%, a Fbg (24 h) of 235.6 mg/dL and a Hb (24 h) of 13.5 g/dL. The Ht (24 h) was 39.9%, the Lym (24 h) was 78.4% and the MCH (24 h) was 21.2 pg. The MCHC (24 h) was 33.9%, the MCV (24 h) was 62.5 fL and the Mono (24 h) was 3%. The Neu (24 h) was 16.6%, the PT (24 h) was 11.9 s and the Plat (24 h) was 124.7 x10_4/uL. For the same compound, the RBC (24 h) was 638.2 x10_4/ul, the Ret (24 h) was 6.6% and the WBC (24 h) was 79.1 x10_2/uL. For the same compound, the KIDNEY_L (24 h) was 1 g, the KIDNEY_R (24 h) was 1 g and the KIDNEY_TOTAL (24 h) was 2 g. It also gave an LIVER (24 h) of 10.1 g, an A/G (24 h) of 1.5 and an ALP (24 h) of 877 IU/L. The ALT (24 h) was 34.8 IU/L, the AST (24 h) was 64.4 IU/L and the BUN (24 h) was 14.4 mg/dL. For the same compound, the CRE (24 h) was 0.4 mg/dL, the Ca (24 h) was 10.7 mg/dL and the Cl (24 h) was 104.6 meq/L. The DBIL (24 h) was 0.086 mg/dL, the GLC (24 h) was 202.8 mg/dL and the IP (24 h) was 9.4 mg/dL. The K (24 h) was 4 meq/L, the LDH (24 h) was 208.6 IU/L and the Na (24 h) was 141.6 meq/L. It also gave a PL (24 h) of 142.6 mg/dL, an RALB (24 h) of 3.3 g/dL and a TBIL (24 h) of 0.1 mg/dL. The TC (24 h) was 73.8 mg/dL, the TG (24 h) was 86.4 mg/dL and the TP (24 h) was 5.5 g/dL. The gamma-GTP (24 h) was 1.4 IU/L.
